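Exposure lasted 48 hours, with cells grown in 96-well plates and compounds tested at five concentrations. At the GI50, growth is halved. Definition used: TGI = concentration required for complete inhibition of growth.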
Columns and labels:
Assay in all cases: DTP human tumour cell line panel, 48 h
RPMI-8226 leukemia = test system: RPMI-8226 leukemia
HCT-15 colon = test system: HCT-15 colon
SK-MEL-5 melanoma = test system: SK-MEL-5 melanoma
SF-295 CNS = test system: SF-295 CNS
SNB-19 CNS = test system: SNB-19 CNS
HS 578T breast = test system: HS 578T breast
T-47D breast = test system: T-47D breast
A549 NSCLC = test system: A549 NSCLC
EKVX NSCLC = test system: EKVX NSCLC
HOP-92 NSCLC = test system: HOP-92 NSCLC
MDA-MB-468 breast = test system: MDA-MB-468 breast
NCI-H23 lung = test system: NCI-H23 lung
CCRF-CEM leukemia = test system: CCRF-CEM leukemia
UO-31 renal = test system: UO-31 renal
OVCAR-3 ovarian = test system: OVCAR-3 ovarian
M14 melanoma = test system: M14 melanoma
NCI-H460 lung = test system: NCI-H460 lung
786-0 renal = test system: 786-0 renal
BT-549 breast = test system: BT-549 breast
SW-620 colon = test system: SW-620 colon
HCC-2998 colon = test system: HCC-2998 colon
MDA-MB-435 = test system: MDA-MB-435
HL-60(TB) leukemia = test system: HL-60(TB) leukemia
UACC-62 melanoma = test system: UACC-62 melanoma
OVCAR-5 ovarian = test system: OVCAR-5 ovarian
CAKI-1 renal = test system: CAKI-1 renal
SK-MEL-28 melanoma = test system: SK-MEL-28 melanoma
HT29 colon = test system: HT29 colon
ACHN renal = test system: ACHN renal

## COc1ccc(C(=O)/C=C/c2ccc(Cl)c(Cl)c2)cc1S(N)(=O)=O
RPMI-8226 leukemia
  GI50: 1670 nM
  TGI: 5960 nM
HCT-15 colon
  GI50: 496 nM
  TGI: 1810 nM
SK-MEL-5 melanoma
  GI50: 2450 nM
  TGI: 6890 nM
SF-295 CNS
  GI50: 1740 nM
  TGI: 3770 nM
SNB-19 CNS
  GI50: 1880 nM
  TGI: 4210 nM
HS 578T breast
  GI50: 6010 nM
  TGI: 52000 nM
T-47D breast
  GI50: 1970 nM
  TGI: 5570 nM
A549 NSCLC
  GI50: 2170 nM
  TGI: 10500 nM
EKVX NSCLC
  GI50: 2120 nM
  TGI: 4730 nM
HOP-92 NSCLC
  GI50: 2290 nM
  TGI: 7310 nM
MDA-MB-468 breast
  GI50: 1470 nM
  TGI: 2980 nM
NCI-H23 lung
  GI50: 1750 nM
  TGI: 3430 nM
CCRF-CEM leukemia
  GI50: 2700 nM
  TGI: 7950 nM
UO-31 renal
  GI50: 1270 nM
  TGI: 2520 nM
OVCAR-3 ovarian
  GI50: 1190 nM
  TGI: 2550 nM
M14 melanoma
  GI50: 1860 nM
  TGI: 3900 nM
NCI-H460 lung
  GI50: 2720 nM
  TGI: 8220 nM
786-0 renal
  GI50: 1620 nM
  TGI: 3110 nM
BT-549 breast
  GI50: 1630 nM
  TGI: 3330 nM
SW-620 colon
  GI50: 1340 nM
  TGI: 3520 nM
HCC-2998 colon
  GI50: 1400 nM
  TGI: 2710 nM
MDA-MB-435
  GI50: 2420 nM
  TGI: 7260 nM
HL-60(TB) leukemia
  GI50: 1880 nM
  TGI: 6310 nM
UACC-62 melanoma
  GI50: 1480 nM
  TGI: 2960 nM
OVCAR-5 ovarian
  GI50: 1600 nM
  TGI: 3340 nM
CAKI-1 renal
  GI50: 1750 nM
  TGI: 4190 nM
SK-MEL-28 melanoma
  GI50: 1750 nM
  TGI: 3260 nM
HT29 colon
  GI50: 1460 nM
  TGI: 2770 nM
ACHN renal
  GI50: 1710 nM

— PubChem BioAssay (NCI)
